Here are results for 13 compounds from US6833456B2, “Indolyl-urea derivatives of thienopyridines useful as antiangiogenic agents, and methods for their use” (Agouron Pharmaceuticals, Inc., priority 2002, dated 2004).

Values joined by “and” are separate entries in the source; they are usually repeats but may differ in a detail not shown here. Identical values can stand only once. A value given as a limit tells only on which side of the number the result lay.

The target in test [1] is T1, unphosphorylated VEGF-R2Δ50 (FLVK) (Homo sapiens, UniProt P35968, DEL940-989/E990V).
T1 construct: VEGF-R2Δ50 contains residues 806-939 and 990-1171; made in house; host or cells: baculovirus/insect cell system
Put plainly: VEGF-R2 coupled spectrophotometric assay, unphosphorylated construct (FLVK). The format is biochemical. The note with it: for inhibition at 0.05 µM: percent inhibition at 50 nM. The method, boiled down:
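Human VEGF-R2Δ50 cytosolic kinase (residues 806-939/990-1171, E990V), baculovirus-expressed, unphosphorylated form. PK/LDH-coupled NADH oxidation at 340 nm with 20 mM poly(E4Y1), 3 mM ATP, 60 mM MgCl2, 2 mM MnCl2, 200 mM HEPES pH 7.5, 5-40 nM enzyme; Ki fitted by Morrison equation.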

The test system of test [2] is human umbilical vein endothelial cells (HUVEC). Put plainly: HUVEC+VEGF proliferation assay. The format is cell-based. Conditions: Homo sapiens, HUVEC, 72 h, VEGF 6 ng/mL, MTT. Here is the method:
This assay determines the ability of a test compound to inhibit the growth factor-stimulated proliferation of human umbilical vein endothelial cells (“HUVEC”). HUVEC cells (passage 3-4, Clonetics, Corp.) were thawed into EGM2 culture medium (Clonetics Corp) in T75 flasks. Fresh EGM2 medium was added to the flasks 24 hours later. Four or five days later, cells were exposed to another culture medium (F12K medium supplemented with 10% fetal bovine serum (FBS), 60 μg/mL endothelial cell growth supplement (ECGS), and 0.1 mg/mL heparin). Exponentially-growing HUVEC cells were used in experiments thereafter. Ten to twelve thousand HUVEC cells were plated in 96-well dishes in 100 μl of rich, culture medium (described above). The cells were allowed to attach for 24 hours in this medium. The medium was then removed by aspiration and 105 μl of starvation media (F12K+1% FBS) was added to each well. After 24 hours, 15 μl of test agent dissolved in 1% DMSO in starvation medium or this vehicle alone was added into each treatment well; the final DMSO concentration was 0.1%. One hour later, 30 μl of VEGF (30 ng/mL) in starvation media was added to all wells except those containing untreated controls; the final VEGF concentration was 6 ng/mL. Cellular proliferation was quantified 72 hours later by MTT dye reduction, at which time cells were exposed for 4 hours MTT (Promega Corp.). Dye reduction was stopped by addition of a stop solution (Promega Corp.) and absorbance at 595 nm was determined on a 96-well spectrophotometer plate reader.

Another test has as its target T2, KDR (VEGFR2) (Homo sapiens, UniProt P35968).
T2 construct: expressed in transfected cells; host or cells: porcine aorta endothelial (PAE) cells
The test is described as follows: KDR (VEGFR2) phosphorylation in PAE-KDR cells assay. The format is cell-based. The note with it: PAE cells overexpressing human KDR, VEGF stimulated; read-out: PAE KDR autophos IC50. The protocol:
This assay determines the ability of a test compound to inhibit the autophosphorylation of KDR in porcine aorta endothelial (PAE)-KDR cells. PAE cells that overexpress human KDR were used in this assay. The cells were cultured in Ham's F12 media supplemented with 10% fetal bovine serum (FBS) and 400 ug/mL G418. Thirty thousands cells were seeded into each well of a 96-well plate in 75 μL of growth media and allowed to attach for 6 hours at 37° C. Cells were then exposed to the starvation media (Ham's F12 media supplemented with 0.1% FBS) for 16 hours. After the starvation period was over, 10 μL of test agent in 5% DMSO in starvation media were added to the test wells and 10 μL of the vehicle (5% DMSO in starvation media) were added into the control wells. The final DMSO concentration in each well was 0.5%. Plates were incubated at 37° C. for 1 hour and the cells were then stimulated with 500 ng/ml VEGF (commercially available from R & D System) in the presence of 2 mM Na3VO4 for 8 minutes. The cells were washed once with 1 mm Na3VO4 in HBSS and lysed by adding 50 μL per well of lysis buffer. One hundred μL of dilution buffer were then added to each well and the diluted cell lysate was transferred to a 96-well goat ant-rabbit coated plate (commercially available from Pierce) which was pre-coated with Rabbit anti Human Anti-flk-1 C-20 antibody (commercially available from Santa Cruz). The plates were incubated at room temperature for 2 hours and washed seven times with 1% Tween 20 in PBS. HRP-PY20 (commercially available from Santa Cruz) was diluted and added to the plate for a 30-minute incubation. Plates were then washed again and TMB peroxidase substrate (commercially available from Kirkegaard & Perry) was added for a 10-minute incubation. One hundred μL of 0.09 N H2SO4 was added to each well of the 96-well plates to stop the reaction. Phosphorylation status was assessed by spectrophotometer reading at 450 nm. IC50 values were calculated by curve fitting using a four-parameter analysis.

A further test concerns the target T3, PDGFRβ (Homo sapiens, UniProt P09619).
T3 construct: expressed in transfected cells; host or cells: porcine aorta endothelial (PAE) cells
The test is described as follows: PAE-PDGFRβ phosphorylation in PAE-PDGFRB cells assay. Type of test: cell-based. Conditions: PAE cells overexpressing human PDGFRβ, PDGF-BB stimulated; read-out: PAE PDGFR autophos IC50. The method, boiled down: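 PAE cells overexpressing human PDGFRβ, serum-starved 16 h (0.1% FBS), compound 1 h at 37° C (0.5% DMSO), then 1 μg/mL PDGF-BB with 2 mM Na3VO4 for 8 min. Receptor captured by anti-PDGFRβ, phosphotyrosine detected by HRP-PY20/TMB at 450 nm; IC50 by four-parameter fit.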

T2 sequence (P35968 20-1356): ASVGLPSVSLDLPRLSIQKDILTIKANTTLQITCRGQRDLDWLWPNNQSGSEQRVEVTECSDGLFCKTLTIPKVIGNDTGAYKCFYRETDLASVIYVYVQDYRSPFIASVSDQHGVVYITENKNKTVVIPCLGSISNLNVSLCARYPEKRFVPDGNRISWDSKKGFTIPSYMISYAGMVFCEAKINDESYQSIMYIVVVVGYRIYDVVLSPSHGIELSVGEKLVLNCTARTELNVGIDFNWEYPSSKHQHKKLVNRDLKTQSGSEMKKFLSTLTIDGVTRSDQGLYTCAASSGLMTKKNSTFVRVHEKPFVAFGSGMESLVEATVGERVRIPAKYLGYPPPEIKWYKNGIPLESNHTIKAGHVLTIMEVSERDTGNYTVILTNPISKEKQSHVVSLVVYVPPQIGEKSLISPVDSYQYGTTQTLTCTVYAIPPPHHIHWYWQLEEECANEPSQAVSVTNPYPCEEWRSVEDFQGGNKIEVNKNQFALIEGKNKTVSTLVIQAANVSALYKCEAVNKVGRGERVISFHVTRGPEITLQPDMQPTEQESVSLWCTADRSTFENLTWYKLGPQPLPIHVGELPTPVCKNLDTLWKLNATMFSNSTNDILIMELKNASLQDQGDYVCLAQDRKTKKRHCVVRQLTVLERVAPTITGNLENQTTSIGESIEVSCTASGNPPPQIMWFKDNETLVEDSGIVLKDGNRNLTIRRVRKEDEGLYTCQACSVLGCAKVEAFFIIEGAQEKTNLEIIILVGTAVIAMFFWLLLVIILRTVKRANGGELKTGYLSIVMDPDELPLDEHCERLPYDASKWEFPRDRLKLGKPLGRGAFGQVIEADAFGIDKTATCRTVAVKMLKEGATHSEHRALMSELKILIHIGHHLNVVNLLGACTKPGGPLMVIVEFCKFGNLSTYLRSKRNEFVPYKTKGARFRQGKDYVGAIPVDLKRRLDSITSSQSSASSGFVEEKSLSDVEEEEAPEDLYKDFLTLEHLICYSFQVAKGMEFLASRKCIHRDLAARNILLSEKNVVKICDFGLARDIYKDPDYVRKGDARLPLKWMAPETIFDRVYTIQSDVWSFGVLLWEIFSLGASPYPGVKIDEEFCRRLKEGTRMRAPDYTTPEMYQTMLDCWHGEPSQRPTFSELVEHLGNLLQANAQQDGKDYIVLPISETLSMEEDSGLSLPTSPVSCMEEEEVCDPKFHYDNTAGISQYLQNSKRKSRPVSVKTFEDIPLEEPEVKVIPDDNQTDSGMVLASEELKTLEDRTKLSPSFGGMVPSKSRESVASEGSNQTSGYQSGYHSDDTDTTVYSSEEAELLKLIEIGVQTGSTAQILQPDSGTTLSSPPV
T3 sequence (P09619 33-1106): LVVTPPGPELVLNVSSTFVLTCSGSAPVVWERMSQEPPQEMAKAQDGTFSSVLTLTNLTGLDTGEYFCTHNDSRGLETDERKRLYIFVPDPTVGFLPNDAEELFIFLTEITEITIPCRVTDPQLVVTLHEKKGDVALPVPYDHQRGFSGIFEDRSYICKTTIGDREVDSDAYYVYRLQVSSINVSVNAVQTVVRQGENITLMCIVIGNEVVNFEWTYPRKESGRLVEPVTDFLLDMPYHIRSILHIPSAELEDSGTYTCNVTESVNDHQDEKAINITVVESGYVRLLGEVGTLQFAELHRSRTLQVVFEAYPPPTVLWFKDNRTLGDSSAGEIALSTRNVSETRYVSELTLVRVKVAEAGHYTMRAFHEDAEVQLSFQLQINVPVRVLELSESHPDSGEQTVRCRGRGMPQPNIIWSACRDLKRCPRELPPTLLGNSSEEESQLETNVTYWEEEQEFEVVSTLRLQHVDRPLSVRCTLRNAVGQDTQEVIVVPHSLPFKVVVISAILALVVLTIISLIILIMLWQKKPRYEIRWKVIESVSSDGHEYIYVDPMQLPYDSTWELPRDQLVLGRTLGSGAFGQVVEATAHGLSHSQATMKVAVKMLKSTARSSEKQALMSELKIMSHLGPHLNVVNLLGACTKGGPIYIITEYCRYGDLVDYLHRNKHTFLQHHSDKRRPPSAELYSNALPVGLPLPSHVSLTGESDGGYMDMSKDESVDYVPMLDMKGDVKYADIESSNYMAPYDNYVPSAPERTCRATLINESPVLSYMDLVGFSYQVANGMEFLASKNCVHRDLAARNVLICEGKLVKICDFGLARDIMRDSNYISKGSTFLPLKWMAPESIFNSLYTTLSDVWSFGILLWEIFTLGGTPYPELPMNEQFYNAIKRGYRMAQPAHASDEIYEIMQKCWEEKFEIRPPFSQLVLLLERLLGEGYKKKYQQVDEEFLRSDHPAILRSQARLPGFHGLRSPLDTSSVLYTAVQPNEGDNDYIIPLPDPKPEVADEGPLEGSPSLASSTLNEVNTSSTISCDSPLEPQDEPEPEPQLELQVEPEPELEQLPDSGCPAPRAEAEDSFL
T1 sequence (P35968 with tags, fused parts or gaps DEL940-989/E990V limits assumed): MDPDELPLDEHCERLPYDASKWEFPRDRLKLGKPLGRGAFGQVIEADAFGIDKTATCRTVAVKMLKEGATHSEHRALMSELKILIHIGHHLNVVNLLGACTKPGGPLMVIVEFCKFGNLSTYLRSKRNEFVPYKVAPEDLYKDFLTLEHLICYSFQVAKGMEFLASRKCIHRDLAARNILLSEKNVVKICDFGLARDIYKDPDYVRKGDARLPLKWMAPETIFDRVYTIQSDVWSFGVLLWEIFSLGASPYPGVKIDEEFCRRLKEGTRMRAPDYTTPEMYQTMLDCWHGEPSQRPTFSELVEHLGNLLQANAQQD

For the compound `C#CCNC(=O)n1c(C)cc2cc(Nc3ccnc4cc(C(=O)N5CCC[C@@H]5CO)sc34)ccc21` [Example 1e, 5-[2-(2R-Hydroxymethyl-pyrrolidine-1-carbonyl)-thieno[3,2-b]pyridin-7-ylamino]-2-methyl-indole-1-carboxylic acid prop-2-ynylamide], the Ki in test [1] was 0.51 nM. The compound also gave an inhibition at 0.05 µM in test [1] of 97%. Besides, the IC50 in test [2] was 0.18 nM; on KDR (VEGFR2), 0.73 nM and 0.41 nM; on PDGFRβ, 11.3 nM.

Consider `CO[C@H]1CN(C(=O)c2cc3nccc(Nc4ccc5c(c4)cc(C)n5C(=O)NC4CC4)c3s2)C[C@@H]1OC` [Example 1s, 5-[2-(3S,4S-Dimethoxy-pyrrolidine-1-carbonyl)-thieno[3,2-b]pyridin-7-ylamino]-2-methyl-indole-1-carboxylic acid cyclopropylamide], for which the affinity in test [1] corresponds to a Ki of 1.1 nM. Further, testing at 0.05 µM in test [1] gave an inhibition of 98%. Moreover, the IC50 in test [2] was 0.308 nM; at KDR (VEGFR2), 0.42 nM and 0.7 nM; on PDGFRβ, 165 nM and 98 nM.

In test [1], `CNC(=O)n1c(C)cc2cc(Nc3ccnc4cc(C(=O)N5C[C@H](O)C[C@H]5C(C)(C)O)sc34)ccc21` [Example 3d, 5-{2-[(2S,4R)-4-Hydroxy-2-(1-hydroxy-1-methyl-ethyl)-pyrrolidine-1-carbonyl]-thieno[3,2-b]pyridin-7-ylamino}-2-methyl-indole-1-carboxylic acid methylamide] returned a Ki of 1.11 nM. Besides, at 0.05 µM the inhibition in test [1] was 60%. Besides, the IC50 in test [2] was 61.6 nM; on KDR (VEGFR2), 2.7 nM and 6.9 nM; on PDGFRβ, over 1000 nM.

Consider `CNC(=O)n1c(C)cc2c(F)c(Oc3ccnc4cc(-c5nc(C(C)(C)O)cs5)sc34)ccc21` [Example 3k, 4-Fluoro-5-{2-[4-(1-hydroxy-1-methyl-ethyl)-thiazol-2-yl]-thieno[3,2-b]pyridin-7-yloxy}-2-methyl-indole-1-carboxylic acid methylamide], for which, in test [1], the Ki turned out to be 0.071 nM and testing at 0.05 µM gave an inhibition of 100%. For the same compound, the IC50 at KDR (VEGFR2) was determined as 0.3 nM. Further, the IC50 on PDGFRβ was determined as 18.4 nM.

On to `C#CCNC(=O)n1c(C)cc2cc(Oc3ccnc4cc(C(=O)N5C[C@H](OC)[C@@H](OC)C5)sc34)ccc21` [Example 4q, 5-[2-(3S,4S-Dimethoxy-pyrrolidine-1-carbonyl)-thieno[3,2-b]pyridin-7-yloxy]-2-methyl-indole-1-carboxylic acid prop-2-ynylamide], for which the affinity in test [1] corresponds to a Ki of 0.475 nM. Testing at 0.05 µM in test [1] gave an inhibition of 98%. The figures for the IC50 (in test [2]; on KDR (VEGFR2)) were 0.27 nM and 0.26 nM, respectively.

`Cc1cc2c(F)c(Oc3ccnc4cc(C(=O)N5CCC[C@H]5CO)sc34)ccc2n1C(=O)NC1CC1` [Example 5d, 4-Fluoro-5-[2-(2S-hydroxymethyl-pyrrolidine-1-carbonyl)-thieno[3,2-b]pyridin-7-yloxy]-2-methyl-indole-1-carboxylic acid cyclopropylamide] came in with a Ki in test [1] of 0.324 nM. In addition, in test [1], the inhibition at 0.05 µM amounted to 96%. Moreover, the IC50 in test [2] was 0.35 nM; at KDR (VEGFR2), 0.53 nM and 0.44 nM and 0.275 nM; at PDGFRβ, 21.5 nM.

With `CNC(=O)n1c(C)cc2c(F)c(Oc3ccnc4cc(C(=O)N5CC[C@H](OC)C5)sc34)ccc21` [Example 5f, 4-Fluoro-5-[2-(3S-methoxy-pyrrolidine-1-carbonyl)-thieno[3,2-b]pyridin-7-yloxy]-2-methyl-indole-1-carboxylic acid methylamide], in test [1], affinity was put at a Ki of 0.095 nM. This compound also came in with an inhibition at 0.05 µM in test [1] of 100%. Also, the IC50 in test [2] came to 0.116 nM; on KDR (VEGFR2), 0.178 nM; at PDGFRβ, 9.9 nM.

Compound `CO[C@H]1CCN(C(=O)c2cc3nccc(Oc4ccc5c(cc(C)n5C(=O)NC5CC5)c4F)c3s2)C1` [Example 5h, 4-Fluoro-5-[2-(3S-methoxy-pyrrolidine-1-carbonyl)-thieno[3,2-b]pyridin-7-yloxy]-2-methyl-indole-1-carboxylic acid cyclopropylamide] gave a Ki in test [1] of 0.52 nM. Also, in test [1], at 0.05 µM the inhibition was 98%. In addition, the figures for the half-maximal inhibitory concentration (IC50) (in test [2]; on KDR (VEGFR2); at PDGFRβ) were 0.28 nM, 0.29 nM and 9.9 nM, respectively.

In test [1], `C#CCNC(=O)n1c(C)cc2c(F)c(Oc3ccnc4cc(C(=O)N5CC[C@@H](O)C5)sc34)ccc21` [Example 5p, 4-Fluoro-5-[2-((R)-3-hydroxy-pyrrolidine-1-carbonyl)-thieno[3,2-b]pyridin-7-yloxy]-2-methyl-indole-1-carboxylic acid prop-2-ynylamide] registered a Ki of 0.083 nM and an inhibition at 0.05 µM of 100%. In addition, the IC50 at KDR (VEGFR2) turned out to be 0.35 nM. For the same compound, at PDGFRβ, the concentration for half-maximal inhibition (IC50) came out at 4.6 nM.

Compound `CNC(=O)n1c(C)c(Cl)c2c(F)c(Oc3ccnc4cc(C(=O)N5CC[C@H](OC)C5)sc34)ccc21` [Example 6b, 3-Chloro-4-fluoro-5-[2-(3S-methoxy-pyrrolidine-1-carbonyl)-thieno[3,2-b]pyridin-7-yloxy]-2-methyl-indole-1-carboxylic acid methylamide] returned a Ki in test [1] of 0.647 nM. 0.05 µM produced 99% inhibition in test [1]. In addition, the IC50 was found to be 1.46 nM in test [2], 0.952 nM on KDR (VEGFR2) and 21.2 nM on PDGFRβ.

In test [1], `C#CCNC(=O)n1c(C)cc2cc(Nc3ccnc4cc(C(=O)N5CCC[C@@H]5COC)sc34)ccc21` [Example 7d, 5-[2-(2R-Methoxymethyl-pyrrolidine-1-carbonyl)-thieno[3,2-b]pyridin-7-ylamino]-2-methyl-indole-1-carboxylic acid prop-2-ynylamide] came in with a Ki of 0.504 nM and an inhibition at 0.05 µM of 96%. Moreover, the half-maximal inhibitory concentration (IC50) at KDR (VEGFR2) turned out to be 0.26 nM. Further, the IC50 on PDGFRβ turned out to be 62 nM.

Take `CO[C@H]1CCN(C(=O)c2cc3nccc(Oc4ccc5c(c4)cc(C)n5C(=O)NCCO)c3s2)C1` [Example 9c, 5-[2-(3S-Methoxy-pyrrolidine-1-carbonyl)-thieno[3,2-b]pyridin-7-yloxy]-2-methyl-indole-1-carboxylic acid (2-hydroxy-ethyl)-amide]: in test [1], the inhibitory constant (Ki) was determined as 3.24 nM and 0.05 µM produced 81% inhibition. The half-maximal inhibitory concentration (IC50) at KDR (VEGFR2) was 1.44 nM and 1.1 nM. Also, at PDGFRβ, the half-inhibitory concentration (IC50) amounted to 56 nM.

In the case of `CCNC(=O)n1c(C)cc2cc(Oc3ccnc4cc(C(=O)N5CC[C@H](OC)C5)sc34)ccc21` [Example 9e, 5-[2-(3S-Methoxy-pyrrolidine-1-carbonyl)-thieno[3,2-b]pyridin-7-yloxy]-2-methyl-indole-1-carboxylic acid ethylamide], in test [1], the inhibitory constant (Ki) amounted to 0.105 nM. This compound returned an inhibition at 0.05 µM in test [1] of 99%. Further, the IC50 at KDR (VEGFR2) was 0.24 nM; at PDGFRβ, 26 nM.

What is called Ki is a measure of affinity in units of concentration, obtained from inhibition or displacement. As a reminder, the inhibition is the drop in the measured response relative to a control, in per cent. One may read the IC50 as the concentration that gives 50% inhibition.
